This note sets out measurements from US11427558B1, “Indazoles and azaindazoles as LRRK2 inhibitors” (ESCAPE Bio, Inc., priority 2019, dated 2022).

Molecules are shown by their SMILES.

Assay [1] addresses Recombinant wild type LRRK2 protein (Homo sapiens (Human), UniProt Q5S007). Kind of assay: LRRK2 kinase activity, LanthaScreen TR-FRET assay (wild type). As to conditions: LRRKtide 400 nM, 25 μM ATP, 60 min; read-out: LRRK2 WT IC50. In kind it is biochemical. In a few lines: (§1)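 Recombinant human wild-type or G2019S LRRK2 phosphorylated fluorescein-labelled LRRKtide (ERM-based) with ATP and serially diluted compound for 60 min at room temperature.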

Assay [2] addresses Recombinant G2019S-LRRK2 protein (Homo sapiens (Human), UniProt Q5S007, G2019S). Kind of assay: LRRK2 kinase activity, LanthaScreen TR-FRET assay (G2019S). The class given is biochemical. The following applies: LRRKtide 400 nM, 25 μM ATP, 60 min. The essentials:
as §1
For orientation: TR-FRET usually uses a lanthanide donor and a delayed reading to cut background.

Chain of Recombinant wild type LRRK2 protein (Q5S007 whole entry): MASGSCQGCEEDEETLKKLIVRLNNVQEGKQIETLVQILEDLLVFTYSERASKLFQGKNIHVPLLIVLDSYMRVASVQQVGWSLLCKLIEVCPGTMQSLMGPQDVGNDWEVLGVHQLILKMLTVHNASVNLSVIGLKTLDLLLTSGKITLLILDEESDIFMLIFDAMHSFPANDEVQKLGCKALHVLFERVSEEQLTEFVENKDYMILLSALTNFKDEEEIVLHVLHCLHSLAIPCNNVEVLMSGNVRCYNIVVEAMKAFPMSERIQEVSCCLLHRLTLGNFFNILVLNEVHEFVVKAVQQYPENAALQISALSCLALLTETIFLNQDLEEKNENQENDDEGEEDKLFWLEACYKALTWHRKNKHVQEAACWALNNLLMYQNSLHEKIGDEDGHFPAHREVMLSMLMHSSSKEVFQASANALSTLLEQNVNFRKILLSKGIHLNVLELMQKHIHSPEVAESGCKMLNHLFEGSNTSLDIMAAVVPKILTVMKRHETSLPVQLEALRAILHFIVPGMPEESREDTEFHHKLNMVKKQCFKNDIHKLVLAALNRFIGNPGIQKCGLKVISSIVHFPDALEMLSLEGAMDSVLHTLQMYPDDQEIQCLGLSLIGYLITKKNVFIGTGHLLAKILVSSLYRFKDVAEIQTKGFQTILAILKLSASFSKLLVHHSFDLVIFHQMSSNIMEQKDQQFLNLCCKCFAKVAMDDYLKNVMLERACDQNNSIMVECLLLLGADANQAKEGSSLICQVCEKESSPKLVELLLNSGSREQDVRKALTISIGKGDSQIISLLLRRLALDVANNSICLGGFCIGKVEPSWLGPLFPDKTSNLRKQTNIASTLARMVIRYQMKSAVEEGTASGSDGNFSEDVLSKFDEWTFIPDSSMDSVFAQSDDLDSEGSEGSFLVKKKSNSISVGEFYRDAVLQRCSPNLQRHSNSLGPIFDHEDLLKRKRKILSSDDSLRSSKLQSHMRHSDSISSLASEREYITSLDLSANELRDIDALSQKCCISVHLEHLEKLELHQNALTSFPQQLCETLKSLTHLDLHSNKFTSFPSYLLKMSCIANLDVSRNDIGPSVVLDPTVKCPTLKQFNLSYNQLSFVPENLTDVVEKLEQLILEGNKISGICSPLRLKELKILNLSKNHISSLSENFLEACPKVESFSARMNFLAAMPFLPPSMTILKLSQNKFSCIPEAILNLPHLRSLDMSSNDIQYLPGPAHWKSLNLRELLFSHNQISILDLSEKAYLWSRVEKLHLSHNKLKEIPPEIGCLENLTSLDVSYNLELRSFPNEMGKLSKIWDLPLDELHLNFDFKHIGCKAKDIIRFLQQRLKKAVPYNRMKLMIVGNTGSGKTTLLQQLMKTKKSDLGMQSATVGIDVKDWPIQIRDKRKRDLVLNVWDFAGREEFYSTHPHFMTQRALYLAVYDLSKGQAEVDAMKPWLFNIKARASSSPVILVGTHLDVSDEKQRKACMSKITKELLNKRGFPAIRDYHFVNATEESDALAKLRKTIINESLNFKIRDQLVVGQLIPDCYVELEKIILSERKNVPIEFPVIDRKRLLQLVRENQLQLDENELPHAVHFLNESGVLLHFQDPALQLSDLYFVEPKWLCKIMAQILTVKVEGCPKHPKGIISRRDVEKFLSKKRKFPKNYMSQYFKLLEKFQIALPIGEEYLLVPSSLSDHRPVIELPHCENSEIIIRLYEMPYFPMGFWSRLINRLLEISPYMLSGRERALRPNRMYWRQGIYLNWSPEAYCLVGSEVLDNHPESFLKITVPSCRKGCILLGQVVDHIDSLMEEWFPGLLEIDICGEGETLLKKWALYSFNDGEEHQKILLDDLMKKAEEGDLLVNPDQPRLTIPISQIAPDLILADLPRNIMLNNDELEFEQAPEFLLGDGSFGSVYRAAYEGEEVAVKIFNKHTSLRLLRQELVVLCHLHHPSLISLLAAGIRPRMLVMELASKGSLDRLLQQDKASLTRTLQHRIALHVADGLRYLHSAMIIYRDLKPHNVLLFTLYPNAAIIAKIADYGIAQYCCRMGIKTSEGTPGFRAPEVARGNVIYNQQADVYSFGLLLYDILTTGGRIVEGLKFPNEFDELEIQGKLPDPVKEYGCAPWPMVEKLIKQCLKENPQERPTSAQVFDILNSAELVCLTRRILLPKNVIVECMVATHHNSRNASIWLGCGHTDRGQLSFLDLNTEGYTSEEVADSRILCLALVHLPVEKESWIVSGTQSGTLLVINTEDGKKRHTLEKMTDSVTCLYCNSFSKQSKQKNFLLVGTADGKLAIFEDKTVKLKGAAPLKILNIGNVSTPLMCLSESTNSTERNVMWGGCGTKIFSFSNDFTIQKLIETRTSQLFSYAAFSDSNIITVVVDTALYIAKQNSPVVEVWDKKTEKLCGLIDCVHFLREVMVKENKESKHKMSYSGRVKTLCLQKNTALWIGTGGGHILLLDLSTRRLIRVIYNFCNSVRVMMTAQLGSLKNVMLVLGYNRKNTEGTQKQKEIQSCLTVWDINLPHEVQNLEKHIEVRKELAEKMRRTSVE
Chain of Recombinant G2019S-LRRK2 protein (Q5S007 whole entry G2019S): as the sequence (Q5S007 whole entry) above, with G2019S counted along it

By IC50 is commonly meant the concentration that gives 50% inhibition. With `Cc1c(C#N)cnc(C(=O)Nc2ccc3[nH]nc(C)c3c2)c1C` [Example 297, 5-Cyano-3,4-dimethyl-N-(3-methyl-1H-indazol-5-yl)picolinamide], the IC50 in assay [1] is 100 to 1000 nM; in assay [2] it was less than 100 nM.
The corresponding values for `Cc1c(C(=O)Nc2ccc3[nH]nc(C)c3c2)nc(Cl)c(C#N)c1C` [Example 298, 6-Chloro-5-cyano-3,4-dimethyl-N-(3-methyl-1H-indazol-5-yl)picolinamide] are less than 100 nM and less than 100 nM.
The corresponding values for `COc1c(C#N)ccc(C)c1C(=O)Nc1ccc2[nH]nc(C)c2c1` [Example 299, 3-Cyano-2-methoxy-6-methyl-N-(3-methyl-1H-indazol-5-yl)benzamide] are 100 to 1000 nM and less than 100 nM.
Turning to `Cc1c(C#N)cnc(C(=O)Nc2ccc3[nH]nc(Br)c3c2)c1C` [Example 300, N-(3-Bromo-1H-indazol-5-yl)-5-cyano-3,4-dimethylpicolinamide], the IC50 in assay [1] was 100 to 1000 nM; in assay [2], less than 100 nM.
On to `Cc1c(C#N)cnc(C(=O)Nc2ccc3[nH]nc(Cl)c3c2)c1C` [Example 301, N-(3-Chloro-1H-indazol-5-yl)-5-cyano-3,4-dimethylpicolinamide], for which the IC50 in assay [1] was 1000 to 10000 nM; in assay [2], less than 100 nM.
Take `Cc1c(C(=O)Nc2ccc3[nH]nc(C)c3c2)nc(Br)c(C#N)c1C` [Example 302, 6-Bromo-5-cyano-3,4-dimethyl-N-(3-methyl-1H-indazol-5-yl)picolinamide]: the IC50 in assay [1] and in assay [2] was less than 100 nM throughout.
With `Cc1c(C(=O)Nc2ccc3[nH]nc(C4CC4)c3c2)nc(Cl)c(C#N)c1C` [Example 303, 6-Chloro-5-cyano-N-(3-cyclopropyl-1H-indazol-5-yl)-3,4-dimethylpicolinamide], the IC50 in assay [1] and in assay [2] was less than 100 nM throughout.
As for `COc1nc(C(=O)Nc2ccc3[nH]nc(C4CC4)c3c2)c(C)c(C)c1C#N` [Example 304, 5-Cyano-N-(3-cyclopropyl-1H-indazol-5-yl)-6-methoxy-3,4-dimethylpicolinamide], the IC50 in assay [1] and in assay [2] was less than 100 nM each time.
As for `Cc1nc(C(=O)Nc2ccc3[nH]nc(C4CC4)c3c2)c(C)c(C)c1C#N` [Example 305, 5-Cyano-N-(3-cyclopropyl-1H-indazol-5-yl)-3,4,6-trimethylpicolinamide], the IC50 in assay [1] is 100 to 1000 nM; in assay [2], less than 100 nM.
`Cc1c(C(=O)Nc2ccc3[nH]nc(C)c3c2)ncc(C#N)c1Cl` [Example 306, 4-Chloro-5-cyano-3-methyl-N-(3-methyl-1H-indazol-5-yl)picolinamide]: the IC50 is 100 to 1000 nM in assay [1] and less than 100 nM in assay [2].
Regarding `Cc1cc(C#N)c(Cl)nc1C(=O)Nc1ccc2[nH]nc(C)c2c1` [Example 307, 6-Chloro-5-cyano-3-methyl-N-(3-methyl-1H-indazol-5-yl)picolinamide], the IC50 in assay [1] is 100 to 1000 nM; in assay [2] it was less than 100 nM.
With `COc1n[nH]c2ccc(NC(=O)c3nc(Cl)c(C#N)c(C)c3C)cc12` [Example 308, 6-Chloro-5-cyano-N-(3-methoxy-1H-indazol-5-yl)-3,4-dimethylpicolinamide], the IC50 in assay [1] and in assay [2] was less than 100 nM throughout.
With `N#Cc1cnc(C(=O)Nc2ccc3[nH]nc(-c4cnoc4)c3c2)c(Cl)c1` [Example 309, 3-Chloro-5-cyano-N-(3-(isoxazol-4-yl)-1H-indazol-5-yl)picolinamide], the IC50 in assay [1] and in assay [2] was less than 100 nM each time.
Consider `N#Cc1cnc(C(=O)Nc2ccc3[nH]nc(-c4cnoc4)c3c2)c(C2CC2)c1` [Example 310, 5-Cyano-3-cyclopropyl-N-(3-(isoxazol-4-yl)-1H-indazol-5-yl)picolinamide], for which the results for the IC50 in assay [1] and in assay [2] were 100 to 1000 nM and less than 100 nM, respectively.
With `COc1cccc(-c2n[nH]c3ccc(NC(=O)c4ncc(C#N)cc4C4CC4)cc23)c1` [Example 311, 5-Cyano-3-cyclopropyl-N-(3-(3-methoxyphenyl)-1H-indazol-5-yl)picolinamide], the IC50 in assay [1] is 100 to 1000 nM; in assay [2] it was less than 100 nM.
For `N#Cc1cnc(C(=O)Nc2ccc3[nH]nc(-c4cnco4)c3c2)c(C2CC2)c1` [Example 312, 5-Cyano-3-cyclopropyl-N-(3-(oxazol-5-yl)-1H-indazol-5-yl)picolinamide] the same measures were 100 to 1000 nM and less than 100 nM.
For `C=C(C)c1cc(C#N)cnc1C(=O)Nc1ccc2[nH]nc(C)c2c1` [Example 313, 5-Cyano-N-(3-methyl-1H-indazol-5-yl)-3-(prop-1-en-2-yl)picolinamide], the IC50 in assay [1] lay within 1000 to 10000 nM; in assay [2] it was 100 to 1000 nM.
Regarding `Cc1c(C#N)cnc(C(=O)Nc2cc(F)c3[nH]ncc3c2)c1C` [Example 314, 5-Cyano-N-(7-fluoro-1H-indazol-5-yl)-3,4-dimethylpicolinamide], the values for the IC50 in assay [1] and in assay [2] were 1000 to 10000 nM and 100 to 1000 nM, respectively.
For `Cc1c(C#N)cnc(C(=O)Nc2ccc3[nH]nc(F)c3c2)c1C` [Example 315, 5-Cyano-N-(3-fluoro-1H-indazol-5-yl)-3,4-dimethylpicolinamide] the same measures were 1000 to 10000 nM and less than 100 nM.
As to `Cc1c(C#N)ccc(F)c1C(=O)Nc1ccc2[nH]nc(C)c2c1` [Example 316, 3-Cyano-6-fluoro-2-methyl-N-(3-methyl-1H-indazol-5-yl)benzamide], the IC50 in assay [1] is 100 to 1000 nM; in assay [2], less than 100 nM.
Consider `CSc1n[nH]c2ccc(NC(=O)c3nc(Cl)c(C#N)c(C)c3C)cc12` [Example 317, 6-Chloro-5-cyano-3,4-dimethyl-N-(3-(methylthio)-1H-indazol-5-yl)picolinamide], for which the IC50 in assay [1] and in assay [2] was less than 100 nM throughout.
With `N#Cc1cnc(C(=O)Nc2ccc3[nH]nc(-c4cnco4)c3c2)c(Cl)c1` [Example 318, 3-Chloro-5-cyano-N-(3-(oxazol-5-yl)-1H-indazol-5-yl)picolinamide], the IC50 in assay [1] and in assay [2] was less than 100 nM each time.
As to `Cc1cc(C#N)cnc1C(=O)Nc1ccc2[nH]nc(-c3cccc(P(C)(C)=O)c3)c2c1` [Example 319, 5-Cyano-N-(3-(3-(dimethylphosphoryl)phenyl)-1H-indazol-5-yl)-3-methylpicolinamide], the values for the IC50 in assay [1] and in assay [2] were 100 to 1000 nM and less than 100 nM, respectively.
Regarding `Cc1c(C(=O)Nc2ccc3[nH]nc(Cl)c3c2)nc(Cl)c(C#N)c1C` [Example 320, 6-Chloro-N-(3-chloro-1H-indazol-5-yl)-5-cyano-3,4-dimethylpicolinamide], the IC50 in assay [1] and in assay [2] was less than 100 nM in each case.
Consider `COc1nc(C(=O)Nc2ccc3[nH]nc(Cl)c3c2)c(C)c(C)c1C#N` [Example 321, N-(3-Chloro-1H-indazol-5-yl)-5-cyano-6-methoxy-3,4-dimethylpicolinamide], for which the IC50 in assay [1] is 100 to 1000 nM; in assay [2] it was less than 100 nM.
Consider `COc1nc(C(=O)Nc2ccc3[nH]nc(C)c3c2)c(C)c(C)c1C#N` [Example 322, 5-Cyano-6-methoxy-3,4-dimethyl-N-(3-methyl-1H-indazol-5-yl)picolinamide], for which the IC50 in assay [1] and in assay [2] was less than 100 nM each time.
On to `Cc1cc(C#N)cnc1C(=O)Nc1ccc2[nH]nc(CCCN3CCCCC3)c2c1` [Example 323, 5-cyano-3-methyl-N-(3-(3-(piperidin-1-yl)propyl)-1H-indazol-5-yl)picolinamide], for which the IC50 in assay [1] and in assay [2] was greater than 10000 nM in each case.
`Cc1c(C(=O)Nc2ccc3[nH]nc(Br)c3c2)nc(Cl)c(C#N)c1C` [Example 324, N-(3-Bromo-1H-indazol-5-yl)-6-chloro-5-cyano-3,4-dimethylpicolinamide]: the IC50 in assay [1] and in assay [2] was less than 100 nM each time.
As for `Cc1nc(C(=O)Nc2ccc3[nH]nc(C)c3c2)c(C)c(C)c1C#N` [Example 325, 5-Cyano-3,4,6-trimethyl-N-(3-methyl-1H-indazol-5-yl)picolinamide], the IC50 in assay [1] is 1000 to 10000 nM; in assay [2], less than 100 nM.
As to `Cc1c(C#N)cnc(C(=O)Nc2ccc3[nH]nc(C)c3c2)c1Cl` [Example 326, 3-Chloro-5-cyano-4-methyl-N-(3-methyl-1H-indazol-5-yl)picolinamide], the IC50 in assay [1] was 100 to 1000 nM; in assay [2], less than 100 nM.
For `Cc1c(C(=O)Nc2ccc3[nH]nc(C4CC4)c3c2)nc(C(F)F)c(C#N)c1C` [Example 327, 5-Cyano-N-(3-cyclopropyl-1H-indazol-5-yl)-6-(difluoromethyl)-3,4-dimethylpicolinamide] the same measures were less than 100 nM and less than 100 nM.
Consider `Cc1c(C(=O)Nc2ccc3[nH]nc(C4CC4)c3c2)nc(C(F)(F)F)c(C#N)c1C` [Example 328, 5-Cyano-N-(3-cyclopropyl-1H-indazol-5-yl)-3,4-dimethyl-6-(trifluoromethyl)picolinamide], for which the IC50 in assay [1] and in assay [2] was less than 100 nM each time.
Regarding `COc1n[nH]c2ccc(NC(=O)c3nc(Br)c(C#N)c(C)c3C)cc12` [Example 329, 6-Bromo-5-cyano-N-(3-methoxy-1H-indazol-5-yl)-3,4-dimethylpicolinamide], the IC50 in assay [1] and in assay [2] was less than 100 nM throughout.
As to `Cc1c(C(=O)Nc2ccc3[nH]nc(C4CC4)c3c2)nc(Br)c(C#N)c1C` [Example 330, 6-Bromo-5-cyano-N-(3-cyclopropyl-1H-indazol-5-yl)-3,4-dimethylpicolinamide], the IC50 in assay [1] and in assay [2] was less than 100 nM each time.
For `Cc1c(Cl)c(C(=O)Nc2ccc3[nH]nc(C4CC4)c3c2)nc(Cl)c1C#N` [Example 331, 3,6-Dichloro-5-cyano-N-(3-cyclopropyl-1H-indazol-5-yl)-4-methylpicolinamide], the IC50 in assay [1] and in assay [2] was less than 100 nM in each case.
Take `C=Cc1nc(C(=O)Nc2ccc3[nH]nc(C4CC4)c3c2)c(C)c(C)c1C#N` [Example 332, 5-Cyano-N-(3-cyclopropyl-1H-indazol-5-yl)-3,4-dimethyl-6-vinylpicolinamide]: the IC50 was 100 to 1000 nM in assay [1] and less than 100 nM in assay [2].
